# Reference: PMC3749181, “Rapid Identification of Antifungal Compounds against Exserohilum rostratum Using High Throughput Drug Repurposing Screens” (PLoS ONE, 2013)
# “And” between values parts separate entries of the source, which are not always exact repeats. Equal entries are not always repeated. Where two headings read alike, the source gives them in different places.
# Tests used:
# E. rostratum [1] = assay: drug repurposing screen against E. rostratum; format: cell-based, Exserohilum rostratum; settings: in our experiments
# From the text: The library of pharmacologically active compounds (LOPAC) consists of 1280 small molecules with characterized biological activities. The LOPAC library (Sigma-Aldrich) has been extensively used for HTS assay validations, [18]. The NIH Chemical Genomics Center Pharmaceutical (NPC) collection was constructed in-house through a combined effort of compound purchasing and custom synthesis and recently expanded to 4096 compounds. In this drug libarary, 52% of which are drugs approved for human or animal use by the United States Food and Drug Administration (FDA), 22% are drugs approved in Europe, Canada, or Japan, and the remaining 25% are compounds that have entered clinical trials or are research compounds commonly used in biomedical research. […] 2.5 µl/well PBS was dispensed into 1536-well plates using a Multidrop-Combi dispenser. Compound in DMSO solution was transferred in a volume of 23 nl/well using a NX-TR pintool station (WAKO Scientific Solutions, San Diego, CA). This additional PBS step for compound addition was designed to prevent the potential fungal contamination of compound libraries. The hyphal fragments in PBS were then added at 2.5 µl/well for a final seeding density of 15,000 hyphal fragments/well using the Multidrop-Combi dispenser. The final compound concentration was 46 µM in the primary screen. […]
# [2] = tested on: E. rostratum hyphal fragments; assay: hyphal fragment fungicidal ATP content assay (PBS, 1536-well); format: cell-based, Exserohilum rostratum; settings: Exserohilum rostratum; for Emax: 46 µM Amphotericin B = 100%
# How it was run: (§1)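 Fungicidal screen: OD-normalised hyphal fragments (15,000/well) in PBS, or conidia (250/well) in RPMI, exposed 24 h at 30°C to compound at 46 µM. Viability read as ATP luminescence (ATPLite), normalised to DMSO (100%) and 46 µM amphotericin B (0%).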
# E. rostratum conidia = assay: conidia growth inhibition ATP content assay (RPMI, 1536-well); format: cell-based, Exserohilum rostratum; settings: for Emax: 46 µM Amphotericin B = 100%
# How it was run: as §1
# SH-SY5Y cells = assay: SH-SY5Y cytotoxicity counter-screen (ATP content assay); format: cell-based, Human; settings: for SH-SY5Y % Max. Resp.: Table 2, SH-SY5Y, inact. = no significant activity at 46 µM; for cytotoxicity in SH-SY5Y mammalian cells: concentration up to 46 µM
# How it was run: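 SH-SY5Y human neuroblastoma cells grown in DMEM/F-12 with 10% FBS at 37 °C, 5% CO2. Viability counter-screen measured cellular ATP by luciferase luminescence (ATPLite) in 1536-well format.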
# [3] = tested on: E. rostratum hyphal fragments; assay: colony formation assay of hyphal fragments; format: cell-based, Exserohilum rostratum; settings: 2 times respective IC50, 37°C, 24 h; p<0.01
# Description: 10 µl of hyphal suspension (processed as described above) was transferred to 1.7 mL microfuge tubes, each containing 28 nM amphotericin B, 242 nM posaconazole, or 10% DMSO in 1 ml PBS. Tubes containing hyphae and drug were incubated at 37°C in a shaking incubator for 24 h, then 200 µl of the hyphae drug suspension was spread on Yeast Extract Peptone Dextrose (YPD) plates for 24 h at 30°C and the number of colony forming units were scored. The experiments were performed in triplicate.
# Mixtures were cultured at 37°C in a shaking incubator for 24 h, then the hyphal suspensions were inoculated on Yeast Extract Peptone Dextrose (YPD) plates that were incubated for 1 day. The number of colonies on each YPD plate was counted.
# E. rostratum [4] = tested on: E. rostratum; design: method as in earlier work; settings: filamentous fungi M38-A2, this isolate; cited from earlier work
# [5] = design: method as in PMID 12445558; settings: 8 hours after intravenous (iv) administration of 20 mg/kg; cited from earlier work
# [6] = Figure 5, read-out: IC50 Hyphae
# [7] = Table 2, inact. = no significant activity in the primary screen, read-out: Hyphae % Max. Resp.
# [8] = Table 2, 24 h, inact. = no significant activity in the primary screen, read-out: Hyphae IC50
# [9] = Exserohilum rostratum, 24 h, Table 2, 24 h, inact. = no significant activity at the highest compound concentration (46 µM), read-out: Conidia IC50
# [10] = Exserohilum rostratum, Figure 5, read-out: IC50 Conidia
# [11] = Exserohilum rostratum, Table 2, inact. = no significant activity at 46 µM, read-out: Conidia % Max. Resp.
Structure (SMILES),"IC50 [2, 6] [µM]","Emax [2, 7] [%]","IC50 [2, 8] [µM]",IC50 (E. rostratum conidia; [9]) [µM],IC50 (E. rostratum conidia; [10]) [µM],Emax (E. rostratum conidia; [11]) [%],SH-SY5Y % Max. Resp. (SH-SY5Y cells; 46 µM Amphotericin B = 100%),SH-SY5Y % Max. Resp. (SH-SY5Y cells),cytotoxicity in SH-SY5Y mammalian cells (SH-SY5Y cells),hyphae-derived colony forming units (CFU) compared to DMSO control [3],value determined from the microdilution method (E. rostratum [4]),also measured
CCCSc1ccc2nc(NC(=O)OC)[nH]c2c1 [albendazole],,,,,,,,,,,,activity against E. rostratum (E. rostratum [1]): not active
C=CC[C@@H]1/C=C(\C)C[C@H](C)C[C@H](OC)[C@H]2O[C@@](O)(C(=O)C(=O)N3CCCC[C@H]3C(=O)O[C@H](/C(C)=C/[C@@H]3CC[C@@H](O)[C@H](OC)C3)[C@H](C)[C@@H](O)CC1=O)[C@H](C)C[C@@H]2OC [Tacrolimus],0.031,83,0.032,0.024,0.036,101,inact.,inact.,no significant cytotoxicity,significantly reduced,,
C[C@@H]1[C@H](O)[C@@H](C)/C=C/C=C/C=C/C=C/C=C/C=C/C=C/[C@H](O[C@@H]2O[C@H](C)[C@@H](O)[C@H](N)[C@@H]2O)C[C@@H]2O[C@](O)(C[C@@H](O)C[C@@H](O)[C@H](O)CC[C@@H](O)C[C@@H](O)CC(=O)O[C@H]1C)C[C@H](O)[C@H]2C(=O)O [Amphotericin B],,84,0.014,0.012,,104,inact.,inact.,,significantly reduced,60 nM,"IC50 ([2]; 15000 fragments/well, read-out: hyphae IC50): 0.0124 µM; Emax ([2]; Table S1, Inact. = no significant activity in the primary screen, read-out: Hyphae % M. Res.): 84%; IC50 (E. rostratum conidia; 250 conidia/well, read-out: conidia IC50): 0.00971 µM; IC50 (E. rostratum conidia; Exserohilum rostratum, Table S1, Inact. = no significant activity at the highest compound concentration (46 µM), read-out: Conidia IC50): 0.806 µM; IC50 (E. rostratum conidia; Exserohilum rostratum, 250 conidia/well, read-out: conidia IC50): 0.00941 µM; Emax (E. rostratum conidia; Exserohilum rostratum, Table S1, Inact. = no significant activity at 46 µM, read-out: Conidia % M. Res.): 104%; SH-SY5Y % M. Res. (SH-SY5Y cells; Table S1, 46 µM Amphotericin B = 100%, Inact. = no significant activity at 46 µM): Inact.; SH-SY5Y IC50 (SH-SY5Y cells; Table S1, Inact. = no significant activity at the highest compound concentration (46 µM)): Inact."
O=c1[nH]c(=O)n([C@H]2C[C@H](O)[C@@H](CO)O2)cc1F [Floxuridine],,77,0.846,0.288,,29,inact.,inact.,,significantly reduced,,brain concentrations [5]: above 600 nM
C[C@@H](c1ncncc1F)[C@](O)(Cn1cncn1)c1ccc(F)cc1F [Voriconazole],2.82,94,2.6,2.9,3.7,101,inact.,inact.,no significant cytotoxicity,significantly reduced,2 µg/ml and 5.7 µM,"IC50 ([2]; read-out: hyphae IC50): 2.64 µM; IC50 (E. rostratum conidia; Exserohilum rostratum, read-out: conidia IC50): 2.91 µM"
N#C/C(=C1/SCC(c2ccccc2Cl)S1)n1ccnc1 (stereo not shown) [Lanoconazole],0.459,65,0.203,0.38,0.818,103,inact.,inact.,no significant cytotoxicity,significantly reduced,,
CC[C@@H]([C@H](C)O)n1ncn(-c2ccc(N3CCN(c4ccc(OC[C@@H]5CO[C@@](Cn6cncn6)(c6ccc(F)cc6F)C5)cc4)CC3)cc2)c1=O [Posaconazole],0.164,78,0.121,0.097,0.079,106,inact.,inact.,no significant cytotoxicity,significantly reduced,0.25 µg/ml and 360 nM,
CCC(C)n1ncn(-c2ccc(N3CCN(c4ccc(OCC5COC(Cn6cncn6)(c6ccc(Cl)cc6Cl)O5)cc4)CC3)cc2)c1=O (stereo not shown) [Itraconazole],1.97,80,2.19,1.24,1.27,100,inact.,inact.,no significant cytotoxicity,significantly reduced,,
